Assay results: publication PMC5596338 (Journal of Bone and Mineral Research, 2017)

Experiments:
[1] = tested on: bone resorption (metaphyseal BMD); assay: Growing rat model adapted from the Schenk assay: BMD of proximal tibial metaphysis by DXA; assay type: in vivo; settings: growing male Sprague Dawley rats, s.c. daily for 7 days
Description: The antiresorptive potency of OX14 was measured by its effect on increasing BMD compared to ALN, ZOL, RIS, and MIN in a growing rat model adapted from the Schenk assay.26, 27 These studies were performed at the Procter & Gamble Health Sciences Center, Mason, OH, USA from 2007 to 2010, as part of the program of screening new bisphosphonates. Male Sprague Dawley rats (6 weeks old, weighing 120 to 150 g) were randomized into groups (n = 6) based on body weight. All groups received treatment by subcutaneous (s.c.) injection at the same time daily for 7 days. The first treatment was on day 0, and the last treatment on day 6, with animals euthanized by cervical dislocation on day 7. BMD of the proximal metaphysis of the right tibia was analyzed using dual‐energy X‐ray analysis (DXA) using a Hologic QDR‐4500 densitometer (Hologic, Inc., Waltham, MA, USA). Efficacy of each bisphosphonate was expressed as percentage change from the vehicle control group. The dose that increased BMD 20% greater than the control was determined via a logistic dose‐response relationship (SAS Institute, Inc., Cary, NC, USA), which estimates an efficacy value using animals in the study, and for comparison of bisphosphonates across studies. Data from compounds run in multiple studies was averaged.

[2] = Mineral binding affinity: elution from hydroxyapatite (HAP) columns by FPLC; assay type: physicochemical; settings: HAP column, mean ± SE
[3] = Short-term (24-hour) skeletal retention based on urinary excretion after i.v. dosing; assay type: in vivo, Sprague Dawley rats; settings: for Percentage of the dose excreted in urine over 24 hours / Skeletal retention (% of administered dose): rats, i.v.; for Percentage of the dose excreted in urine over 24 hours: 0 to 24 hours, mean ± standard deviation, averaged from all studies; for Skeletal retention (% of administered dose): calculated as dose administered minus urinary excretion over 24 hours
[4] = tested on: bone (BV/TV, osteoclasts, osteoblasts); assay: In vivo OX14 dose response study in non-tumor-bearing mice (µCT and histomorphometry of tibias); set-up: species or system C57BL/6J mice
Description: Tibias were then assessed by μCT and histological analyzes as described below (see Assessment of bone integrity). […] Bruker) and analyzed using CTAn (v. 1.12; Bruker). The number and area of cortical bone lesions (pixels^2) were assessed by taking the μCT datasets, removing the trabecular bone and then volume-rendering the datasets to create 3D models using […] (version 1.0; ANUVizlab, Canberra, Australia), followed by analysis of three different sides of the bone using ImageJ software (version 1.47; NIH, Bethesda, MD, USA; https://imagej.nih.gov/ij/). After decalcification, wax embedding, and sectioning of the tibias, the numbers of osteoclasts (following tartrate-resistant acid phosphatase [TRAP] staining) were assessed using OsteoMeasure Advanced Bone Histomorphometry Video System (Osteometrics, Inc., Decatur, GA, USA) and standard histomorphometric methods.28

[5] = tested on: JJN3 myeloma cells in NSG mice; assay: JJN3-NSG murine model of myeloma-induced bone disease; assay type: in vivo; settings: for Osteoclast number (cortico-endosteal surface) / Cortical bone lesions by μCT / Osteolytic disease by μCT / Tumor burden by flow cytometric analysis of femoral bone marrow flushes / BV/TV by μCT: ZOL 28.4, OX14 23 µg P/kg s.c. 2×/week; for Osteoclast number (cortico-endosteal surface): tumor mice; for Cortical bone lesions by μCT / Osteolytic disease by μCT / BV/TV by μCT: vs tumor control; for BV/TV by μCT: tumor-bearing mice
Description: Female NSG mice (7 to 8 weeks old, weighing 19 to 23 g) were randomized based on weight into four groups (n = 8/group). Group 1 was a non–tumor‐bearing control group (naive). Groups 2 to 4 were injected via the tail vein with 1 × 10^6 JJN3 cells and then treated twice a week s.c. from the time of tumor cell injection for the duration of the study with vehicle control (PBS, group 2), ZOL (28.4 µg P/kg, group 3), or OX14 (23 µg P/kg, group 4). At the first signs of morbidity (after 3 weeks) all animals were anesthetized ([…] and 2% oxygen by inhalation) for cardiac bleeding and euthanized by cervical dislocation. Bone disease and tumor burden were assessed as described below (see Analysis of tumour burden).
At euthanasia, the right tibias were dissected free of soft tissue and fixed in 10% formalin before µCT analysis was used to measure the percentage of BV/TV. Tibias were scanned on a Skyscan 1272 (Bruker, Kontich, Belgium) at 4.3 μm with a 0.7‐degree rotation step, reconstructed using NRecon (v. 1.6.9.4; Bruker) and analyzed using CTAn (v. 1.12; Bruker). The number and area of cortical bone lesions (pixels^2) were assessed by taking the µCT datasets, removing the trabecular bone and then volume‐rendering the datasets to create 3D models using Drishti (version 1.0; ANUVizlab, Canberra, Australia), followed by analysis of three different sides of the bone using ImageJ software (version 1.47; NIH, Bethesda, MD, USA; https://imagej.nih.gov/ij/). After decalcification, wax embedding, and sectioning of the tibias, the numbers of osteoclasts (following tartrate‐resistant acid phosphatase [TRAP] staining) were assessed using OsteoMeasure Advanced Bone Histomorphometry Video System (Osteometrics, Inc., Decatur, GA, USA) and standard histomorphometric methods.28
Tumor burden was assessed on sections of tibias that had been stained with hematoxylin and eosin, where the distinct morphology of the myeloma cells distinguishes them from normal marrow. The proportion of bone marrow occupied by the myeloma cells was assessed using OsteoMeasure and expressed as a percentage of the whole bone section area as described.22 Tumor burden was also assessed in bone marrow flushes of the left femora by flow cytometry using an anti‐human HLA‐ABC‐APC antibody and an isotype‐matched control (R&D Systems, Minneapolis, MN, USA) as described.29, 30

[6] = Adverse side effects observed across all in vivo studies; set-up: species or system rats and mice
Excerpt: Sprague Dawley rats, C57BL/6J and NOD/SCID‐γ (NSG, NOD.Cg‐Prkdcscid Il2rgtm1Wjl/SzJ) mice were purchased from Charles River Laboratories (Wilmington, MA, USA/Margate, UK). All animals were housed in cages under standard conditions (12‐hour light/dark cycle). NSG mice were housed in specific‐pathogen‐free conditions. All animals were healthy and pathogen‐free at the start of each study and once each study had commenced they were monitored daily for any unexpected adverse effects. […] Similar calculations were used to determine group numbers in non–tumor‐bearing animals based on previously observed changes in bone (BMD or trabecular bone fraction [BV/TV]).

[7] = tested on: experimentally induced inflammatory colitis; set-up: method as in earlier work; settings: cited from earlier work

SMILES | Dose required to increase BMD by 20% greater than control [1] | HAP affinity (mean retention time/min) [2] | Percentage of the dose excreted in urine over 24 hours [3] | Skeletal retention (% of administered dose) [3] | Osteoclast number (cortico-endosteal surface) [5] | Cortical bone lesions by μCT [5] | Osteolytic disease by μCT [5] | Tumor burden by flow cytometric analysis of femoral bone marrow flushes ([5]; vs tumor control (JJN3)) | BV/TV by μCT [5] | further results
NCCCC(O)(P(=O)(O)O)P(=O)(O)O [Alendronate, alendronate] | 1.52 μg P/kg | – | – | – | – | – | – | – | – | –
O=P(O)(O)C(O)(Cc1cnc2ccccn12)P(=O)(O)O [Minodronate, minodronate] | 0.11 μg P/kg | 10.33 ± 0.18 min | 44.80% ± 1.6 | 55.2 ± 1.6 % of administered dose | – | – | – | – | – | –
O=P(O)(O)C(O)(Cn1ccnc1)P(=O)(O)O [Zoledronate, zoledronate] | 0.08 μg P/kg | 12.53 ± 0.1 min | 27.95% ± 3.18 | 72.05 ± 3.18 % of administered dose | significant reduction in osteoclast number | significantly reduced | prevented the osteolytic disease | no significant reduction in tumor burden | significantly higher | Number of osteoblasts on the trabecular bone surface ([4]; ZOL 28.4 µg P/kg s.c. 2×/week, 3 weeks, vs vehicle): significant reduction in osteoblasts; Tumor burden by histological analysis of tibias ([5]; 28.4 µg P/kg ZOL s.c. 2×/week, vs tumor control (JJN3)): significant reduction in tumor burden
O=P(O)(O)C(O)(Cc1cccnc1)P(=O)(O)O [Risedronate, risedronate] | 0.45 μg P/kg | 9.97 ± 0.18 min | 34.91% ± 9.3 | 65.1 ± 9.31 % of administered dose | – | – | – | – | – | % excretion (urine, 24 h) ([3]; RIS co-dosed with MIN or OX14): 32.5 ± 0.1%; % excretion (urine, 24 h) ([3]; RIS co-dosed with equal or greater amounts of ALN or ZOL): 43.2 ± 2.6%; % excretion (urine, 24 h) ([3]; RIS dose 0.1 mg): 38.1 ± 5.6%; % excretion (urine, 24 h) ([3]; RIS dose 0.5 mg): 45.1 ± 1.0%; % excretion (urine, 24 h) ([3]; RIS dose 1 mg): 43.0 ± 1.8%
O=P(O)(O)C(F)(Cc1cnc2ccccn12)P(=O)(O)O [OX14, 1‐fluoro‐2‐(imidazo‐[1,2‐α]pyridin‐3‐yl)‐ethyl‐bisphosphonate] | 0.30 μg P/kg | 6.17 ± 0.08 min | 52.85% ± 3.82 | 47.15 ± 3.82 % of administered dose | significant reduction in osteoclast number | significantly reduced | prevented the osteolytic disease | no significant reduction in tumor burden | significantly higher | BV/TV by μCT ([4]; OX14 23 µg P/kg s.c. 2×/week, 3 weeks, vs vehicle): increased BV/TV; BV/TV by μCT ([4]; OX14 2.3 and 0.23 µg P/kg s.c. 2×/week, 3 weeks, vs vehicle): not significantly different from the vehicle control group; Osteoclast perimeter on the trabecular bone perimeter ([4]; OX14 2.3 and 0.23 µg P/kg, vs vehicle control): neither of the lower doses of OX14 produced significant reductions; Tumor burden (overall statement) ([5]; OX14 23 µg P/kg s.c. 2×/week): not to reduce tumor burden; Adverse side effects (loss or gain of weight, liver toxicity, or death) [6]: no adverse side effects; Prevention of experimentally induced inflammatory colitis [7]: effectiveness in preventing experimentally induced inflammatory colitis
